Structures are written as SMILES.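 Tested at 5 concentrations; 48 h exposure; 96-well plates; endpoints linearly interpolated, else capped at highest concentration. GI50 is the concentration that inhibits growth by half. The concentration for full growth arrest is given as TGI.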

Test in all cases: NCI anticancer screen, dose series, 48 h
Experiment [1] concerns NCI-H522 lung.
The test system of experiment [2] is OVCAR-8 ovarian.
Experiment [3] relates to UO-31 renal.
Experiment [4] relates to OVCAR-3 ovarian.
Experiment [5] has as its system NCI-H460 lung.
Experiment [6] deals with SK-MEL-2 melanoma.
Experiment [7] concerns DU-145 prostate.
The subject of experiment [8] is SR leukemia.
Experiment [9] deals with NCI/ADR-RES ovarian.
Experiment [10] has as its system MDA-MB-435.

As to `O=S(=O)([O-])c1ccc(N=Cc2ccccc2[O-])cc1.O=S(=O)([O-])c1ccc(N=Cc2ccccc2[O-])cc1.[O]=[U+2]=[O]`, the GI50 in [1], in experiment [2], in experiment [3], in experiment [4], in experiment [5] and in experiment [6] was more than 100 µM each time. The TGI in experiment [1], in [2], in [3], in [4], in experiment [5] and in [6] was more than 100 µM throughout.
Turning to `COc1ccc(C(=O)Nc2ncc(Cc3cccc(Cl)c3)s2)cc1OC`, the GI50 was 0.921 µM in experiment [1]; 1.88 µM in experiment [7]; 1.56 µM in experiment [2]; 0.164 µM in experiment [8]; 0.953 µM in experiment [3]; 0.368 µM in [4]. Further, the GI50 in experiment [9] was 0.398 µM; in experiment [5] it was 0.0611 µM; in experiment [6], 0.557 µM. For the same molecule, the TGI is more than 100 µM in experiment [1]; more than 100 µM in [7]; more than 100 µM in experiment [2]; more than 100 µM in experiment [8]; more than 100 µM in experiment [3]; 9.71 µM in experiment [4]. In addition, the TGI in [9], in experiment [5] and in [6] was more than 100 µM throughout.
Take `Cc1cc([N+](=O)[O-])ccc1NC(=O)C(=O)C(C(=O)c1ccccc1-c1ccccc1)C1OC(=O)c2ccccc21` (centres undefined): the TGI turned out to be 26.2 µM in experiment [1]; 77.1 µM in [2]; 54.7 µM in experiment [8]; 31.3 µM in experiment [3]; 38.2 µM in experiment [5]; 29.2 µM in [6].
For the molecule `O=C1/C(=N\O)c2ccccc2S1(=O)=O`, the TGI in experiment [1], in [2], in experiment [8], in [3], in [5] and in [6] was more than 100 µM in each case.
Take `COc1c(C)cc(O)cc1C=O`: the TGI in [1], in experiment [2], in experiment [3], in [4], in [5] and in experiment [6] was more than 100 µM throughout.
On to `CN(C)c1ccc(/C=C/C(=O)[O-])cc1.CN(C)c1ccc(/C=C/C(=O)[O-])cc1.[Cu+2]`, for which the TGI in [1], in [2], in experiment [3], in [4], in experiment [5] and in experiment [6] was more than 100 µM each time.
As for `CCOC(=O)C1SC(=Nc2cccc(Cl)c2C)N=C1C` (centres undefined), the TGI in [1] is 35.2 µM; in experiment [2], 61.9 µM; in experiment [8], 61.2 µM; in [3] it was 78.9 µM; in experiment [4], 42.5 µM; in experiment [5] it was more than 100 µM. This molecule also came in with a TGI in experiment [6] of 37 µM.
As to `CC1=Nc2ccccc2NC(c2ccoc2)C1` (centres undefined), the TGI in experiment [1], in experiment [2], in experiment [8], in experiment [3], in experiment [4] and in experiment [5] was more than 100 µM throughout. This molecule displayed a TGI in experiment [6] of more than 100 µM.
As to `COC(=O)C1=Cc2cc(OC)c(OC)c(OC)c2[C@H](c2cc(OC)c(OC)c(OC)c2)C1C(=O)OC` (some centres undefined), the TGI in [1], in [2], in [3], in experiment [4] and in experiment [5] was more than 100 µM each time.
For the molecule `c1ccc([CH2][Sn]([CH2]c2ccccc2)([O]c2cccc3cccnc23)[O]c2cccc3cccnc23)cc1`, the GI50 in [1] was 0.186 µM; in experiment [2] it was 0.515 µM; in experiment [3], 0.363 µM; in experiment [4], 0.3 µM; in experiment [5] it was 0.207 µM; in [6], 0.511 µM. Moreover, the TGI in experiment [1] is 0.351 µM; in [2], 1.59 µM; in experiment [3], 1.39 µM; in experiment [4], 0.949 µM; in experiment [5], 0.446 µM; in [6], 1.77 µM.
`COC(=O)C(Cc1nc2ccccc2[nH]c1=O)/C(=N\NC(C)(C)C)C(=O)Nc1c(C)cc(Br)cc1C` (centres undefined): the TGI in experiment [1] was 29 µM; in experiment [2], 54.2 µM; in experiment [8], 76.2 µM; in experiment [3], more than 100 µM; in [5] it was more than 100 µM; in [6], more than 100 µM.
For the molecule `C=CC(=O)NCCSCCCOC1(C(=O)O)CC(O)C(NC(C)=O)C(C(O)C(O)CO)O1` (centres undefined), the TGI in experiment [1], in experiment [2], in [8], in experiment [3], in [4] and in experiment [5] was more than 100 µM throughout. Also, the TGI in [6] is more than 100 µM.
With `O=C1/C(=C\c2ccc(F)cc2)CN(C(=O)c2ccccc2)C/C1=C\c1ccc(F)cc1`, the GI50 in experiment [1] is 2.35 µM; in [10] it was 2.11 µM; in [2], 2.82 µM; in [8], 0.484 µM; in experiment [3], 2.4 µM; in [9], 4.14 µM. Besides, the GI50 in experiment [6] is 4.44 µM. For the same molecule, the TGI in experiment [1] was 7.73 µM; in [10], 5.65 µM; in experiment [2], 17.5 µM; in [8] it was 26.8 µM; in experiment [3], 10.6 µM; in experiment [9], more than 100 µM. The molecule further showed a TGI in experiment [6] of 19.5 µM.
As for `O=[N+]([O-])c1ccc(C2CC(c3ccccc3Cl)=Nc3ccccc3S2)cc1` (centres undefined), the TGI in experiment [1] is 8.16 µM; in experiment [2], 5.59 µM; in experiment [8], 5.27 µM; in experiment [3], 36.8 µM; in [4] it was 34.2 µM; in experiment [5], 45.1 µM. The TGI in [6] came to 24.5 µM.

The values above are taken from PubChem BioAssay (NCI).
